* marks the point of attachment. Biotin = O=C1N[C@H]2[C@H](CS[C@H]2CCCCC(=O)*)N1
Key:
[1] = target: SH3 domain of Abl (Homo sapiens, UniProt P00519); assay: Stated SH3 domain binding of recognition unit
[2] = system: SH3 domain of Nck

Chain of SH3 domain of Abl (P00519 61-121 limits assumed): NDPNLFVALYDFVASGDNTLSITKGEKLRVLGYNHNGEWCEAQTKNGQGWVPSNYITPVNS

Row | Substance | binding to the SH3 domain of Abl [1] | binding to the SH3 domain of Nck [2]
1 | Biotin-SRPPRWSPPPVPLPTSLDSR-NH2 [PXXP.ABL.G1/2M] | bind | –
2 | Biotin-SRSLSEVSPKPPIRSVSLSR-NH2 [PXXP.NCK.S1/4] | – | bind

From patent US7223547B2, “Polypeptides having a functional domain of interest and methods of identifying and using same” (Cytogen Corporation, priority 1995, dated 2007)
